According to US6448262B1, “Pesticidal and parasiticidal use of 2-(substituted thio) thiazolo-[4,5-b]pyridine compounds” (American Cyanamid Company, priority 1998, dated 2002):
Where two headings read alike, the source gives them in different places.

Columns and labels:
Type in all cases: in vivo
[1] = test system: Tetranychus urticae (OP-resistant strain), 2-spotted spider mite; assay: 2-spotted spider mite (TSM) plant dip test; conditions: 300 ppm; mortality counts after 2 days
Description: (§1) Subsequent dilutions are made with water as needed.
Tetranychus urticae (OP-resistant Strain), 2-spotted Spider Mite (TSM)
Sieva lima bean plants with primary leaves expanded to 7-8 cm are selected and cut back to one plant per pot. A small piece is cut from an infested leaf taken from the main colony and placed on each leaf of the test plants. This is done about 2 hours before treatment to allow the mites to move over to the test plant to lay eggs. The size of the cut, infested leaf is varied to obtain about 100 mites per leaf. At the time of test treatment, the piece of leaf used to transfer the mites is removed and discarded. The newly-infested plants are dipped in the test solution for 3 seconds with agitation and set in the hood to dry. After 2 days, one leaf is removed and mortality counts are made.

[2] = test system: Root-knot nematode, Meloidogyne incognita; conditions: potted tomato, scored 4 weeks after inoculation
Excerpt: Soil Nematicide Assay Targeting Root-knot Nematode, Meloidogyne incognita on Potted Tomato
The test compound is solubilized in acetone and diluted with water to the required test concentration. Silty loam soil in a 3 inch pot with a 3-week-old tomato transplant is drenched with the test solution. Four thousand root-knot nematode Meloidogyne incognita J2 larvae are dispensed in a aqueous suspension onto the soil. The pots are kept in the greenhouse and 4 weeks following inoculation of the pots, plant roots are washed free of soil and scored for the degree of root galling using the root-knot galling index identified below.

[3] = test system: Diabrotica virgifera virgifera Leconte, 2nd instar western corn rootworm; assay: Western corn rootworm (WCR) soil jar test; conditions: 50 ppm; mortality counts after 5 days
Description: as §1
Diabrotica virgifera virgifera Leconte, 2nd Instar Western Corn Rootworm (WCR)
One cc of fine talc is placed in a 30 mL wide-mouth screw-top glass jar. One mL of the appropriate acetone test solution is pipetted onto the talc so as to provide 1.25 mg of active ingredient per jar. The jars are set under a gentle air flow until the acetone is evaporated. The dried talc is loosened, 1 cc of millet seed is added to serve as food for the insects and 25 mL of moist soil is added to each jar. The jar is capped and the contents thoroughly mixed mechanically. Following this, ten 2nd instar rootworms are added to each jar and the jars are loosely capped to allow air exchange for the larvae. The treatments are held for 5 days when mortality counts are made. Missing larvae are presumed dead, since they decompose rapidly and cannot be found. The concentrations of active ingredient used in this test correspond approximately to 50 kg/ha.

[4] = test system: Lucilia serricata first instar blowfly larvae; assay: Ectoparasiticide evaluation in Lucilia serricata; conditions: rate 100 ppm; for mortality at 100 ppm: Lucilia
Description: Ectoparasiticide Evaluation of Test Compounds in Lucilia serricata
The test compound is dissolved in acetone to a concentration of 100 ppm. 200 μL is added to three 12 mm filter paper disks in 128 well assay trays and allowed to dry. Approximately 20 first instar blowfly larvae and 200 μL bovine serum are added to the disks. Wells are covered with plastic lids and incubated at about 27° C. Mortality is determined at 24 and 48 hours.

C. elegans = assay: Evaluation of test compounds against C. elegans; set-up: key: 9: complete kill in 4 hours; 8: complete kill in 24 hours; 7: markedly reduced motility in approximately 95% of worms in 24 hours; 0: normal motility, same as controls; conditions: 300 ppm; observed at 4 and 24 hours post-immersion
Description: Evaluation of Test Compounds Against C. elegans Cultures of C. elegans (Bristol strain from J. Lewis) are maintained on E. coli lawns on NG Agar Plates at […]. New cultures are established weekly. Nematodes for testing are washed from cultures using Na buffer. Compounds are dissolved in 80% acetone. The test material is micropipetted (25 μl) into a single well of a 96-well sterile tissue culture plate and the solvent allowed to evaporate. A freshly prepared volume (50 μl) of C. elegans in Na buffer is micropipetted into each treated well and several control wells per plate. Plates are incubated at 20° C. Observations for efficacy are made under a dissecting microscope at 4 and 24 hours post-immersion. Immediately prior to reading the plate, it is gently tapped to stimulate the movement of the worms. Activity is judged subjectively, but semi-quantitatively, based on the drug effects on motility of the adults and larvae.

[5] = test system: Diabrotica undecimpunctata howardi, eggs-southern corn rootworm; assay: Southern corn rootworm eggs (SCR-Eggs) treated diet test; conditions: 1000 ppm; mortality counts after 7 days
Description: as §1
(§2) Spodoptera eridania, Eggs-southern Armyworm and Diabrotica undecimpunctata howardi, Eggs-southern Corn Rootworm (SAW-Eggs) and (SCR-Eggs)
(§3) Wells containing artificial diet are treated with the test solutions and dried. The appropriate insect eggs are then placed in the wells. The wells are covered with vented, adhesive, clear plastic covers. After 7 days, mortality counts are made.

[6] = test system: Aphis gossypii, cotton aphid; assay: Cotton aphid (CA) cotyledon dip test; conditions: 300 ppm; mortality counts after 5 days
Excerpt: as §1
Aphis gossypii, Cotton Aphid (CA)
Cotton plants at the cotyledon stage are selected and cut back to one plant per pot. A heavily infested leaf is taken from the main colony and placed on top of each cotyledon. The aphids are allowed to transfer to the host plant overnight. At the time of test treatment, the leaf used to transfer the aphids is removed and discarded. The cotyledons are dipped in the test solution and allowed to dry. After 5 days, mortality counts are made.

[7] = test system: Spodoptera eridania, eggs-southern armyworm; assay: Southern armyworm eggs (SAW-Eggs) treated diet test; conditions: 3000 ppm; mortality counts after 7 days
Description: as §1, §2, §3

[8] = test system: Spodoptera eridania, 2nd instar larvae, southern armyworm; assay: Southern armyworm (SAW) 2nd instar larvae leaf dip test; conditions: 300 ppm; observations at 5 days
Excerpt: as §1
Spodoptera eridania, 2nd Instar Larvae, Southern Armyworm (SAW)
A Sieva lima bean leaf expanded to 7-8 cm in length is dipped in the test solution with agitation for 3 seconds and allowed to dry in a hood. The leaf is then placed in a 100×10 mm petri dish containing a damp filter paper on the bottom and ten 2nd instar caterpillars. At 5 days, observations are made of mortality, reduced feeding, or any interference with normal molting.

[9] = 24 hr, read-out: Percent Mortality 24 hr
[10] = 48 hr, read-out: Percent Mortality 48 hr

Row | SMILES | TSM rating [1] | Galling Index ([2]; rate 10 ppm soil drench) | Galling Index ([2]; rate 25 ppm soil drench) | Galling Index ([2]; rate 50 ppm soil drench) | WCR rating [3] | mortality at 100 ppm [4, 9] [%] | mortality at 100 ppm [4, 10] [%] | C. elegans activity rating (motility of adults and larvae) (C. elegans) | SCR Eggs rating [5] | CA rating [6] | SAW Eggs rating [7] | SAW rating [8] | Percent Mortality 24 hr ([4]; 24 hr) [%] | Percent Mortality 48 hr ([4]; 48 hr) [%]
1 | FC(F)=C(F)CCSc1nc2ncccc2s1 [Example 1, 2-[(4,4,3-Trifluoro-3-butenyl)thio]thiazolo[4,5-b]pyridine] | 0 | 0 (0) | 0^1 (0) | 0^1 (0) | 0 | 100 | 100 | 7 | 9 | 0 | 8 | 0 | – | –
2 | C=CCSc1nc2ncccc2s1 [Example 2] | 0 | – | – | – | 1 | – | – | 0 | 0 | 0 | 0 | 0 | 0 | 0
3 | COC(=O)CSc1nc2ncccc2s1 [Example 4] | 0 | – | – | – | 0 | – | – | 9 | 0 | 0 | 0 | 0 | – | –
4 | CCOC(=O)CSc1nc2ncccc2s1 [Example 5] | 0 | – | – | – | 0 | – | – | 9 | 0 | 0 | – | 0 | – | –
5 | CCOC(=O)C(C)Sc1nc2ncccc2s1 (centres unmarked) [Example 6] | 0 | – | – | – | 0 | – | – | 9 | 0 | 0 | 9 | 0 | 0 | 0
6 | FC(F)(Br)Sc1nc2ncccc2s1 [Example 7, 2-[(Bromodifluoromethyl)thio]thiazolo[4,5-b]pyridine] | 5 | – | – | – | 9 | 80 | 100 | – | 9 | 0 | 9 | 0 | – | –
7 | FC(F)Sc1nc2ncccc2s1 [Example 8, 2-[(Difluoromethyl)thio]thiazolo[4,5-b]pyridine] | 8 | – | – | – | 9 | 0 | 0 | – | 9 | 3 | 9 | 0 | – | –
